# According to patent US9403831B2, “Triazolopyrazine derivative and use thereof” (KOREA RESEARCH INSTITUTE OF CHEMICAL TECHNOLOGY, priority 2013, dated 2016):
# Counter-ions that a name gives are not always drawn.
# Experiments:
# c-Met enzyme = c-Met enzyme (Homo sapiens (Human), UniProt P08581); assay: c-Met kinase inhibitory activity (DELFIA time-resolved fluorescence); format: biochemical; details: c-Met kinase activity reduced to 50%
# Experimental: The c-Met kinase inhibitory activity was analyzed using dissociation enhanced lanthanide fluoro-immunoassay (DELFIA, Perkin Elmer), which is a kind of time-resolved fluorescence (TRF). […] of the compound prepared in the present invention, as a test compound, was put in a Greiner 96-well V-shaped bottom plate, and a tyrosin kinase buffer ([…]) mixed with a c-Met enzyme was added thereto, and then the enzyme and the test compound were stirred for 15 minutes, followed by culturing. An ATP solution ([…]) was added thereto to proceed with a kinase reaction at room temperature for 30 minutes, and then a 50 mM […] solution (EDTA, […]) was added to stop the reaction. After that, the reaction mixture was transferred to a plate coated with Streptavidin, followed by culturing under shaking. After 2 hours, the cultured material was washed three times with a PBS-T buffer (PBS 0.05% Tween 20).
# The europium-labeled anti-phosphotyrosine antibody was diluted to 1:[…] of the diluent was added per well, followed by culturing under shaking. After 1 hour, the cultured material was washed three times with a PBS-T buffer (PBS 0.05% Tween 20).
# [1] = system: gastric cancer cell line Hs746T; assay: Cancer cell proliferation inhibitory test (SRB or MTS assay, 72 hours); format: cell-based; details: Homo sapiens, cancer cell (Hs746T) proliferation inhibition, culturing with compound for 72 hours
# Experimental: The drug used in the test was diluted to a desired concentration as a test medium, and the final concentration of dimethyl sulfoxide was 0.5% or less.
# All the cancer cell lines used in the test originated from the human body, and gastric cancer cell lines Hs746T and MKN-45 were used.
# 5×10^3 cells of Hs746T were dispensed to each well of the 96-well flat bottom micro-plate. MKN-45 was dispensed at 1×10^4 cells. The cells were cultured for 24 hours, so that the cells adhered to the bottom, and then the culture liquid was removed. The culture liquid containing each of the compounds of the present invention was added, followed by culturing for 72 hours. After the culturing with the compound was completed, the cytotoxicity was measured using protein stain reagent SRB or MTS assay.
# Specifically, after the culturing with the compound of the present invention was completed, the cultured liquid was removed. Each well was treated with a cool TCA solution, and allowed to stand at 4° C. for 1 hour to fix cells. The TCA solution was removed, followed by drying at room temperature, and then a stain solution containing 0.4% SRB dissolved in 1% acetic acid solution was added, and then the mixture was allowed to stand for 30 minutes to stain cells. […] The absorbance of each well was measured at a wavelength range of 520 nm using an Eliza reader (micro-plate reader).
# The drug cytotoxicity was measured from the OD values for the well added without the drug (C), each well added with the drug (T), and the well initially added with the drug (Tz): [(T−Tz)/(C−Tz)]×100 for […]; or [(T−Tz)/(Tz)]×100 for Tz>T.
# The cancer cell inhibitory activity measurement using MTS assay was conducted as follows. Specifically, after the culturing with the compound of the present invention was completed, the PMS solution and MTS solution constituting the CellTiter 96® AQueous Non-Radioactive Cell Proliferation Assay product from Promega Co. were mixed, and 20 μL was put into each well. After the cells were placed in an incubator for 4 hours, and then taken out and allowed to stand at room temperature for 10 minutes.
# Chain of c-Met enzyme (P08581 25-1390): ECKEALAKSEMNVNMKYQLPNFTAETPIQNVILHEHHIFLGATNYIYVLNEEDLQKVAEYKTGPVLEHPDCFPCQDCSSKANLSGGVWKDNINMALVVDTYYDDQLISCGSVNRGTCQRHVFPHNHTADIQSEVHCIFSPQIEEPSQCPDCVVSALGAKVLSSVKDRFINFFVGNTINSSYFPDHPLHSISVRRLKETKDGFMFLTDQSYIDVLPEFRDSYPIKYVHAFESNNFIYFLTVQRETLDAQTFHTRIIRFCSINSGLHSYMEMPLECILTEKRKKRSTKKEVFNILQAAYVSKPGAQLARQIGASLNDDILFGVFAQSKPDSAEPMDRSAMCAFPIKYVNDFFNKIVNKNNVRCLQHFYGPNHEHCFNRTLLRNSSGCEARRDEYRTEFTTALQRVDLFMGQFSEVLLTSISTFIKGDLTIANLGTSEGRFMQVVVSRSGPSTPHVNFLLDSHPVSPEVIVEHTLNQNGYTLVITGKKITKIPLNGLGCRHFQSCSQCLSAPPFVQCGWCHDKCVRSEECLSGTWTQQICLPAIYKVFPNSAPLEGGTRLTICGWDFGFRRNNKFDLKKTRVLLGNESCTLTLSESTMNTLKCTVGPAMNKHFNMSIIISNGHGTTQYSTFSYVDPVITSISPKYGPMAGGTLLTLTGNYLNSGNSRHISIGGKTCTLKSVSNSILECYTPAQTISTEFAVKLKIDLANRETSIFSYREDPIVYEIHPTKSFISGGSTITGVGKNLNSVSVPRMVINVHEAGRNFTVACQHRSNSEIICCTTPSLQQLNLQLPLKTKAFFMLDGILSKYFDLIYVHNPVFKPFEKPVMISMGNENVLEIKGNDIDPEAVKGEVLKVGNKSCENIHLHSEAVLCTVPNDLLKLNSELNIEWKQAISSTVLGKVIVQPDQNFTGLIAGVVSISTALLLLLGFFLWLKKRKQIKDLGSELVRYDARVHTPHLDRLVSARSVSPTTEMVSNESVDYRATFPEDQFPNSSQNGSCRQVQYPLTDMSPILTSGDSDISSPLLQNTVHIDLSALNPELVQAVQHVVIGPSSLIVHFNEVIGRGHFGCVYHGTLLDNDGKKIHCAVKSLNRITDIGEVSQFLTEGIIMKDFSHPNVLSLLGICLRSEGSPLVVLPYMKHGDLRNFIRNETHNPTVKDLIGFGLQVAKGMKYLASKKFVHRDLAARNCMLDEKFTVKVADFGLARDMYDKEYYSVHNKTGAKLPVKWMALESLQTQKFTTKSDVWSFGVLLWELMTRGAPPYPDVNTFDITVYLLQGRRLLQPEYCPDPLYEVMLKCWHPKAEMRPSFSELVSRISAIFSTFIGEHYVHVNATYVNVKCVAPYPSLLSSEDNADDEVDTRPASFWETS
Structure (SMILES),IC50 (c-Met enzyme) [nM],IC50 [1] [nM]
"Cn1cc(-c2cnc3nnn(C[C@@H]4CN(c5ncc(-c6ccc(CN7CCOCC7)cc6)cn5)CCO4)c3n2)cn1 [Chemical formula 18, (S)-2-((6-(1-methyl-1H-pyrazol-4-yl)-1H-[1,2,3]triazolo[4,5-b]pyrazin-1-yl)methyl)-4-(5-(4-(morpholinomethyl)phenyl)pyrimidin-2-yl)morpholine]",5,9.6
"Cn1cc(-c2cnc3nnn(C[C@@H]4CN(c5ncc(C6CCN(CCO)CC6)cn5)CCO4)c3n2)cn1 [Chemical formula 21, (S)-2-(4-(2-(2-((6-(1-methyl-1H-pyrazol-4-yl)-1H-[1,2,3]triazolo[4,5-b]pyrazin-1-yl)methyl)morpholino)pyrimidin-5-yl)piperidin-1-yl)ethanol]",5,5.6
"Cn1cc(-c2cnc3nnn(CC4CCCN(c5ncc(C6=CCNCC6)cn5)C4)c3n2)cn1 (centres unmarked) [Chemical formula 33, 6-(1-methyl-1H-pyrazol-4-yl)-1-((1-(5-(1,2,3,6-tetrahydropyridin-4-yl)pyrimidin-2-yl)piperidin-3-yl)methyl)-1H-[1,2,3]triazolo[4,5-b]pyrazinehydrochloride]",3,9.5
"CN1CC=C(c2cnc(N3CCCC(Cn4nnc5ncc(-c6cnn(C)c6)nc54)C3)nc2)CC1 (centres unmarked) [Chemical formula 34, 1-((1-(5-(1-methyl-1,2,3,6-tetrahydropyridin-4-yl)pyrimidin-2-yl)piperidin-3-yl)methyl)-6-(1-methyl-1H-pyrazol-4-yl)-1H-[1,2,3]triazolo[4,5-b]pyrazine]",3,15
"Cn1cc(-c2cnc3nnn(CC4CCCN(c5ncc(C6=CCN(CCO)CC6)cn5)C4)c3n2)cn1 (centres unmarked) [Chemical formula 35, 2-(4-(2-(3-((6-(1-methyl-1H-pyrazol-4-yl)-1H-[1,2,3]triazolo[4,5-b]pyrazine-1-yl)methyl)piperidin-1-yl)pyrimidin-5-yl)-5,6-dihydropyridin-1(2H)-yl)ethanol]",3,2

# These reach a lower IC50 (c-Met enzyme). Values come first.
IC50 (c-Met enzyme) [nM],IC50 [1] [nM],Structure (SMILES)
2,0.11,"N#Cc1cc(-c2cnc3nnn(C[C@@H]4CN(c5ncc(C6=CCNCC6)cn5)CCO4)c3n2)ccc1F [Chemical formula 30, (S)-2-fluoro-5-(1-((4-(5-(1,2,3,6-tetrahydropyridin-4-yl)pyrimidin-2-yl)morpholine-2-yl)methyl)-1H-[1,2,3]triazolo[4,5-b]pyrazin-6-yl)benzonitrile]"
2,0.18,"N#Cc1cccc(-c2cnc3nnn(C[C@@H]4CN(c5ncc(-c6cnn(CCO)c6)cn5)CCO4)c3n2)c1 [Chemical formula 31, (S)-3-(1-((4-(5-(1-(2-hydroxyethyl)-1H-pyrazol-4-yl)pyrimidin-2-yl)morpholin-2-yl)methyl)-1H-[1,2,3]triazolo[4,5-b]pyrazin-6-yl)benzonitrile]"
2,3.8,"Cn1cc(-c2cnc3nnn(CC4CCCN(c5ncc(-c6cnn(CCO)c6)cn5)C4)c3n2)cn1 (centres unmarked) [Chemical formula 36, 2-(3-(2-(3-((6-(1-methyl-1H-pyrazol-4-yl)-1H-[1,2,3]triazolo[4,5-b]pyrazin-1-yl)methyl)piperidin-1-yl)pyrimidin-5-yl)-1H-pyrazol-1-yl)ethanolhydrochloride]"
2,1.3,"Cn1cc(-c2cnc3nnn(CC4CCCN(c5ncc(-c6cnn(C7CCNCC7)c6)cn5)C4)c3n2)cn1 (centres unmarked) [Chemical formula 37, 6-(1-methyl-1H-pyrazol-4-yl)-1-((1-(5-(1-(piperidin-4-yl)-1H-pyrazol-3-yl)pyrimidin-2-yl)piperidin-3-yl)methyl)-1H-[1,2,3]triazolo[4,5-b]pyrazinehydrochloride]"
1,0.14,"N#Cc1cc(-c2cnc3nnn(C[C@@H]4CN(c5ncc(-c6cnn(CCO)c6)cn5)CCO4)c3n2)ccc1F [Chemical formula 32, (S)-2-fluoro-5-(1-((4-(5-(1-(2-hydroxyethyl)-1H-pyrazol-4-yl)pyrimidin-2-yl)morpholine-2-yl)methyl)-1H-[1,2,3]triazolo[4,5-b]pyrazin-6-yl)benzonitrile]"
